Legend:
[1] = system: COX-2; experiment: expression of COX-2 in colon tissue; type: in vivo; conditions: TNBS-induced mice
Description: Cyclooxygenase-2 (COX-2) is undetectable in normal human colonic epithelial cells, but the presence of a large amount of COX-2 can be detectable in the intestinal mucosal epithelial cells of CD patients and UC patients. Such high expression can cause elevated expression of pro-inflammatory substance of prostaglandin, and promote IBD epithelial congestion and edema.

[2] = system: TNBS-induced ulcerative colitis mice; experiment: disease activity index (DAI) of TNBS-induced ulcerative colitis mice; type: in vivo; conditions: third day after enema
[3] = first 60 minutes of the reaction, in vitro; cited from earlier work
[4] = system: myeloperoxidase (MPO); experiment: MPO activity test in colon tissue of TNBS-induced ulcerative colitis mice; type: in vivo
Description: It can be seen from the results of MPO activity test in colonic tissues that the content of MPO in normal tissue was very low, the neutrophil infiltration was obvious in model group treated with TNBS, and the content of MPO increased obviously, being twice as that in normal group.

[5] = system: p65 subunit in the NF-κB signaling pathway; experiment: Western blotting of p-p65 and p65 in colonic tissues; type: in vivo, mice; conditions: compared with the model group
Description: NF-κB, as a key transcription factor regulating the release of inflammatory cytokines, plays an important role in the complex cytokine dysregulation network of IBD. To investigate whether the inhibitory effect of AL-1 on the expression of inflammatory cytokines TNF-α, IL-6 and IL-1β is related to the activation of NF-κB signaling pathway, the present inventors used Western blotting to detect the expression of p-p65 and p65 in colonic tissues.

[6] = system: IL-6; experiment: serum inflammatory cytokine IL-6 in TNBS-induced ulcerative colitis mice; type: in vivo
[7] = system: TNF-α; experiment: serum inflammatory cytokine TNF-α in TNBS-induced ulcerative colitis mice; type: in vivo
[8] = system: TNBS-induced ulcerative colitis mice; experiment: morphological observation of the colon of TNBS-induced ulcerative colitis mice; type: in vivo
Description: In the TNBS model group mice, the lesions of the colon were obvious, the colon was shortened, the proximal colon was dilated with indication of obstructive lesions, and the distal intestine became narrowed with indication of ulceration with congestion, edema, erosion and intestinal wall thickening.

[9] = system: PPAR-γ; experiment: amount of PPAR-γ expressed in colon tissue; type: in vivo; conditions: TNBS-induced mice
Description: Peroxisome proliferator-activated receptor γ (PPAR-γ) may have anti-inflammatory effects by inhibiting the expression of transcription factors NF-κB, AP-1 and other related genes, have the effects of reducing the expression of inflammatory factors and adhesion molecules, and play important role for maintaining the integrity of the intestinal mucosa. Studies have shown that, when IBD occurred, the in vivo expression of PPAR-γ would be reduced in some extent.

[10] = system: TNBS-induced ulcerative colitis mice; experiment: histopathological observation (HE staining, CMDI) of the colon of TNBS-induced ulcerative colitis mice; type: in vivo
Description: Colon tissues were paraffin-embedded and sliced in parallel with HE staining.

[11] = system: TNBS-induced ulcerative colitis mice; experiment: colon length of TNBS-induced ulcerative colitis mice; type: in vivo; conditions: three days after TNBS enema
[12] = system: IL-1β; experiment: serum inflammatory cytokine IL-1β in TNBS-induced ulcerative colitis mice; type: in vivo
[13] = system: TNBS-induced ulcerative colitis mice; experiment: body weight of TNBS-induced ulcerative colitis mice; type: in vivo
Description: The mice of normal control group were shown lively, body hair shiny, and weight continued to increase. The model mice after TNBS enema appeared to be apathetic and lazy with body hair messy and less luster, and with water intake being reduced. The model mice were also shown continuing decrease in body weight, with an average weight loss of 17.9% on the third day compared with that before rectal perfusion.

## C=C1CCC2[C@@](C)(CC[C@@H](O)[C@@]2(C)CO)C1C/C=C1/C(=O)OCC1OC(=O)CCCCC1CCSS1 (stereo partly shown) [AL-1]
[1]
  COX-2 expression level in colon tissue: effectively inhibit the increase of COX-2 expression level
[2]; 5 mg/kg
  average DAI score: 6.00
[2]; 15 mg/kg
  average DAI score: 6.25
[2]; 45 mg/kg
  average DAI score: 4.00
[3]
  binding rate with the sulfydryl group of GSH relative to Andro: 7 times
[4]; AL-1 5, 15 and 45 mg/kg
  MPO content in the colon tissue: lessen in a dose-dependent manner the increase of the MPO content
[5]
  phosphorylation level of p65 in colonic tissue: significantly reduce the phosphorylation level of p65
[6]; AL-1 5, 15, 45 mg/kg
  serum level of IL-6: significantly lessen the increase
[7]; AL-1 5, 15, 45 mg/kg
  serum level of TNF-α: significantly lessen the increase
[8]; AL-1 5, 15 and 45 mg/kg
  colon morphology: significant reduction of the symptoms
[9]
  expression of PPAR-γ in colon tissue: significantly increased the expression of PPAR-γ
[10]; 5 mg/kg
  colon histopathology (HE staining): obvious myositis cell infiltration of mucosa and submucosa but in much less extent as compared with the model groups
[10]; 15 mg/kg
  colon histopathology (HE staining): myositis cell infiltration was reduced
[10]; 45 mg/kg
  colon histopathology (HE staining): significant reduction in the amount of myositis cell infiltration of mucosa and submucosa
[10]; AL-1 5, 15 and 45 mg/kg
  CMDI (tissue damage): improve tissue damage in a dose-dependent manner
[11]; AL-1 5, 15 and 45 mg/kg
  colon length: enhanced the colonic length
[12]; AL-1 5, 15, 45 mg/kg
  serum level of IL-1β: significantly lessen the increase
[13]; AL-1 45 mg/kg, third day
  body weight increase on average compared with the model group: 4.65%

## Nc1ccc(O)c(C(=O)O)c1 [Mesalazine, reference compound]
[1]
  COX-2 expression level in colon tissue: effectively inhibit the increase of COX-2 expression level
[2]; 100 mg/kg
  average DAI score: 5.13
[4]; Mesalazine, P<0.01
  MPO content in the colon tissue: obviously reduce the content of MPO
[5]
  phosphorylation level of p65 in colonic tissue: significantly reduce the phosphorylation level of p65
[6]; Mesalazine
  serum level of IL-6: significantly lessen the increase
[7]; Mesalazine
  serum level of TNF-α: significantly lessen the increase
[8]; Mesalazine group
  colon morphology: improvement on colon injury
[9]
  expression of PPAR-γ in colon tissue: significantly increased the expression of PPAR-γ
[10]; 100 mg/kg
  colon histopathology (HE staining): obvious relief of myositis cell infiltration
[10]; Mesalazine
  CMDI (mucosal injury): significant effect to improve mucosal injury
[11]; Mesalazine, compared with the model groups
  improvement of colon length: not significant
[12]; Mesalazine
  serum level of IL-1β: significantly lessen the increase
[13]; Mesalazine, from the second day after modeling, P<0.05
  body weight of the mice: significantly increased body weight

— patent US11903923B2, “Use of andrographolide derivatives in preparation of medicaments for preventing and treating inflammatory bowel diseases” (GUANGZHOU MAGPIE PHARMACEUTICALS CO., LTD., priority 2015, dated 2024)
